Experimental data reported in patent publication US20120029177A1, “HETEROCYCLE-AMINO ACID DERIVATIVES FOR TARGETING CANCER TISSUE AND RADIOACTIVE OR NON-RADIOACTIVE LABELED COMPOUNDS THEREOF” (SNU R&DB FOUNDATION, priority 2009, published 2012).

Legend:
[1] = test system: SNU-C4 xenografted nude mice; assay: Biodistribution study in SNU-C4 xenografted nude mice after intravenous injection; type: in vivo, mouse; conditions: for % ID/g Tumor: SNU-C4 tumor; for tumor uptake compared with the control heterocyclic compound (in words): SNU-C4 xenografted nude mice, 10 min to 2 hr
Procedure: Human colon cancer cell line SNU-C4 was cultured in RPMI1640 media containing 10% fetal bovine serum and harvested using trypsin. The cells were washed using 10 mL PBS and centrifugation at 3,000 rpm. Each nude mouse was injected with 2×10^5 cells/0.1 mL on the right shoulder subcutaneously. On 13 days post-injection, each 10 μCi/0.1 mL of ^68Ga labeled agent was injected into the xenografted mice through the tail vein. The injected mice were sacrificed at 10 min, 30 min, 1 hr, and 2 hr, cancer, blood, muscle, heart, liver, spleen, stomach, intestine, and bone were obtained, weighed, and their radioactivities were counted. The results were expressed as percentages of injected dose per gram tissue (% ID/g).

[2] = test system: SNU-C4 xenografted nude mice; assay: PET imaging of tumor xenografted mice; type: in vivo, mouse; conditions: PET at 1 and 2 hr post-injection, FIG. 2
Procedure: Human colon cancer cell line SNU-C4 was cultured in RPMI1640 media containing 10% fetal bovine serum and harvested using trypsin. The cells were washed using 10 mL PBS and centrifugation at 3,000 rpm. Each nude mouse was injected with 2×10^5 cells/0.1 mL on the right shoulder subcutaneously. On 14 days post-injection, each 10 μCi/0.1 mL of ^68Ga labeled agent was injected into the xenografted mice through the tail vein. The injected mice were anesthetized using 2% isoflurane, PET images were obtained at 1 and 2 hr post-injection using rodent R4, microPET scanner (Concorde Microsystem Inc.). The images were analyzed using ASIPro software (Concorde Microsystem Inc.).

CT-26 cells = assay: In vitro cell uptake, CT-26 (FIG. 1b); type: cell-based, mouse; conditions: controls ^68Ga-DO2A, ^68Ga-DO3A
Procedure: (§1) Human colon cancer cell line SNU-C4 was purchased from Korea Cell Line Bank (KCLB). Human thyroid cell line ARO, human liver cancer cell line Hep3B, human glioma cell line U251MG and U87MG, and mouse colon cell line CT-26 were purchased from American Type Culture Collection (ATCC). SNU-C4 and ARO were culture in RPMI1640 (Welgene Inc., Korea) and Hep3B, U251 MG, U87MG, and CT-26 were cultured in DMEM (Welgene Inc., Korea). Penicillin, streptomycin and amphotericin B (10,000 IU/mL, 10 mg/mL and 25 μg/mL, respectively, Mediatech Inc., U.S.A.) 1% mixture and fetal bovine serum (Welgene Inc., Korea) were added to all cell culture media. Cell culture was done in 37° C. incubator with supply of 5% CO2.
(§2) About 1.8×10^5 cells/mL CT-26 and 1.2×10^5 cells/mL U87MG were put into 24-well incubation plate and incubated for 20 hr. When the each well was about 80% confluent with cells, 296 kBq/0.5 mL of ^68Ga labeled agent was added to each well. Culture supernatants were discarded at each time point and cells were washed with ice-cooled Hank's balanced salt solution (HBSS, pH7.3, Gibco, U.S.A.) 2 times. The cells were dissolved by 0.5% sodium dodecylsulfate (SDS), recovered and counted using a gamma counter (Packard, Can berra Co., U.S.A.). Total protein amount in each sample was measured by bicinchonic acid (BCA, Pierce, U.S.A.) method.

U87MG cells = assay: In vitro cell uptake, U87MG (FIG. 1a); type: cell-based, human; conditions: controls ^68Ga-DOTA, ^68Ga-NOTA
Procedure: as §1, §2

[3] = 10 min after intravenous injection
[4] = 30 min after intravenous injection
[5] = 1 hr after intravenous injection
[6] = 2 hr after intravenous injection

## N[C@@H](CN1CCN(CC(=O)[O-])CCN(CC(=O)[O-])CCN(CC(=O)[O-])CC1)C(=O)O.[68Ga+3] (stereo in doubt) [^68Ga-DO3A-ala]
[1]; [3]
  % ID/g Tumor: 3.22 ± 0.90 % ID/g
  % ID/g Blood: 11.12 ± 0.49 % ID/g
  % ID/g Bone: 4.06 ± 0.44 % ID/g
  % ID/g Heart: 2.70 ± 0.18 % ID/g
  % ID/g Intestine: 2.48 ± 0.13 % ID/g
  % ID/g Kidney: 60.06 ± 14.07 % ID/g
  % ID/g Liver: 2.58 ± 0.07 % ID/g
  % ID/g Lung: 13.60 ± 2.37 % ID/g
  % ID/g Muscle: 3.52 ± 0.42 % ID/g
  % ID/g Spleen: 2.59 ± 0.30 % ID/g
  % ID/g Stomach: 1.97 ± 0.18 % ID/g
[1]; [4]
  % ID/g Tumor: 2.49 ± 0.40 % ID/g
  % ID/g Blood: 8.35 ± 0.29 % ID/g
  % ID/g Bone: 3.63 ± 0.49 % ID/g
  % ID/g Heart: 1.80 ± 0.22 % ID/g
  % ID/g Intestine: 1.74 ± 0.14 % ID/g
  % ID/g Kidney: 9.10 ± 2.19 % ID/g
  % ID/g Liver: 2.30 ± 0.13 % ID/g
  % ID/g Lung: 9.35 ± 1.00 % ID/g
  % ID/g Muscle: 2.03 ± 0.41 % ID/g
  % ID/g Spleen: 2.33 ± 0.15 % ID/g
  % ID/g Stomach: 1.53 ± 0.17 % ID/g
[1]; [5]
  % ID/g Tumor: 2.44 ± 0.46 % ID/g
  % ID/g Blood: 7.97 ± 1.29 % ID/g
  % ID/g Bone: 4.73 ± 0.69 % ID/g
  % ID/g Heart: 1.69 ± 0.40 % ID/g
  % ID/g Intestine: 1.87 ± 0.33 % ID/g
  % ID/g Kidney: 4.82 ± 0.99 % ID/g
  % ID/g Liver: 2.35 ± 0.25 % ID/g
  % ID/g Lung: 8.40 ± 1.17 % ID/g
  % ID/g Muscle: 1.38 ± 0.39 % ID/g
  % ID/g Spleen: 2.33 ± 0.44 % ID/g
  % ID/g Stomach: 1.53 ± 0.37 % ID/g
[1]; [6]
  % ID/g Tumor: 2.98 ± 0.58 % ID/g
  % ID/g Blood: 6.07 ± 1.13 % ID/g
  % ID/g Bone: 5.00 ± 2.41 % ID/g
  % ID/g Heart: 1.30 ± 0.40 % ID/g
  % ID/g Intestine: 4.38 ± 1.14 % ID/g
  % ID/g Kidney: 6.06 ± 2.27 % ID/g
  % ID/g Liver: 2.52 ± 0.41 % ID/g
  % ID/g Lung: 8.04 ± 0.83 % ID/g
  % ID/g Muscle: 1.33 ± 0.48 % ID/g
  % ID/g Spleen: 2.19 ± 0.35 % ID/g
  % ID/g Stomach: 11.42 ± 5.04 % ID/g
[1]
  tumor uptake compared with the control heterocyclic compound (in words): higher and increasing by time
[2]
  tumor uptake in PET images: high tumor uptakes
CT-26 cells
  tumor cell uptake versus control agents: significantly increase tumor cell uptakes

## NC(CNC(=O)CN1CCN(CC(=O)[O-])CCN(CC(=O)[O-])CCN(CC(=O)[O-])CC1)C(=O)O.[68Ga+3] (stereo not drawn) [^68Ga-DOTA-ala]
[1]; [3]
  % ID/g Tumor: 3.33 ± 0.58 % ID/g
  % ID/g Blood: 7.87 ± 1.11 % ID/g
  % ID/g Bone: 2.52 ± 0.64 % ID/g
  % ID/g Heart: 2.19 ± 0.47 % ID/g
  % ID/g Intestine: 1.91 ± 0.48 % ID/g
  % ID/g Kidney: 50.94 ± 18.62 % ID/g
  % ID/g Liver: 1.57 ± 0.22 % ID/g
  % ID/g Muscle: 2.12 ± 0.64 % ID/g
  % ID/g Spleen: 1.64 ± 0.26 % ID/g
  % ID/g Stomach: 2.63 ± 0.63 % ID/g
[1]; [4]
  % ID/g Tumor: 2.23 ± 0.64 % ID/g
  % ID/g Blood: 2.63 ± 0.11 % ID/g
  % ID/g Bone: 1.20 ± 0.17 % ID/g
  % ID/g Heart: 0.78 ± 0.07 % ID/g
  % ID/g Intestine: 0.74 ± 0.11 % ID/g
  % ID/g Kidney: 44.79 ± 11.99 % ID/g
  % ID/g Liver: 0.80 ± 0.12 % ID/g
  % ID/g Muscle: 0.90 ± 0.11 % ID/g
  % ID/g Spleen: 0.74 ± 0.10 % ID/g
  % ID/g Stomach: 0.90 ± 0.17 % ID/g
[1]; [5]
  % ID/g Tumor: 0.93 ± 0.22 % ID/g
  % ID/g Blood: 1.30 ± 0.28 % ID/g
  % ID/g Bone: 0.90 ± 0.12 % ID/g
  % ID/g Heart: 0.43 ± 0.10 % ID/g
  % ID/g Intestine: 0.52 ± 0.10 % ID/g
  % ID/g Kidney: 67.43 ± 16.10 % ID/g
  % ID/g Liver: 0.56 ± 0.06 % ID/g
  % ID/g Muscle: 0.47 ± 0.16 % ID/g
  % ID/g Spleen: 0.47 ± 0.04 % ID/g
  % ID/g Stomach: 0.45 ± 0.10 % ID/g
[1]; [6]
  % ID/g Tumor: 0.66 ± 0.25 % ID/g
  % ID/g Blood: 0.65 ± 0.11 % ID/g
  % ID/g Bone: 0.70 ± 0.26 % ID/g
  % ID/g Heart: 0.15 ± 0.05 % ID/g
  % ID/g Intestine: 0.40 ± 0.10 % ID/g
  % ID/g Kidney: 48.79 ± 20.36 % ID/g
  % ID/g Liver: 0.39 ± 0.10 % ID/g
  % ID/g Muscle: 0.14 ± 0.03 % ID/g
  % ID/g Spleen: 0.33 ± 0.08 % ID/g
  % ID/g Stomach: 0.21 ± 0.05 % ID/g
[1]
  tumor uptake compared with the control heterocyclic compound (in words): higher than that of ^68Ga-DOTA at all time point
[2]
  tumor uptake in PET images: high tumor uptakes
U87MG cells
  tumor cell uptake versus control agents: significantly increase tumor cell uptakes
